Literature values, collected in US20040047946A1, “Methods and formulations useful for lowering the cholesterol content of egg yolk” (Kapac, LLC, priority 2002, published 2004).

Tests used:
hens = hens fed 0.0265% lovastatin for 35 days
chickens = chickens fed 2% and 4% sitosterol emulsified with carboxymethyl cellulose

Structure (SMILES) | less cholesterol in eggs than those from hens that received only a corn-soybean diet (hens) | cholesterol and total sterol content of the egg (chickens) | level of egg yolk sitosterol (chickens)
CC[C@H](C)C(=O)O[C@H]1C[C@@H](C)C=C2C=C[C@H](C)[C@H](CC[C@@H]3C[C@@H](O)CC(=O)O3)[C@H]21 [lovastatin] | 15% | – | –
CC[C@H](CC[C@@H](C)[C@H]1CC[C@H]2[C@@H]3CC=C4C[C@@H](O)CC[C@]4(C)[C@H]3CC[C@]12C)C(C)C [sitosterol] | – | significant reduction | increased
